Here are results for twelve molecules from patent US20260070945A1, “MACROCYCLIC IMMUNOMODULATORS” (Bristol-Myers Squibb Company, priority 2022, published 2026).

Where a SMILES comes first, the peptide text is derived from it. Bridges are numbered along the chain shown (N, C = ends). [ ]: non-standard residue; d: D form. The star is where a group is joined. ξ: configuration not given here. Phe(4-COOH) = N[C@@H](Cc1ccc(C(=O)O)cc1)C(=O)O; Bip = N[C@@H](Cc1ccc(-c2ccccc2)cc1)C(=O)O; Phe(3-Me) = Cc1cccc(C[C@H](N)C(=O)O)c1; hhGln = NC(=O)CCCC[C@H](N)C(=O)O; Cha = N[C@@H](CC1CCCCC1)C(=O)O; Cit = NC(=O)NCCC[C@H](N)C(=O)O; Thr(3ξ) = CC(O)[C@H](N)C(=O)O; hSer = N[C@@H](CCO)C(=O)O; Carboxymethyl = O=C(O)C*; NMeA = CN[C@@H](C)C(=O)O; Aun = NCCCCCCCCCCC(=O)O; Dab = NCC[C@H](N)C(=O)O; AEEA = NCCOCCOCC(=O)O

T1 sequence (Q15116 25-288): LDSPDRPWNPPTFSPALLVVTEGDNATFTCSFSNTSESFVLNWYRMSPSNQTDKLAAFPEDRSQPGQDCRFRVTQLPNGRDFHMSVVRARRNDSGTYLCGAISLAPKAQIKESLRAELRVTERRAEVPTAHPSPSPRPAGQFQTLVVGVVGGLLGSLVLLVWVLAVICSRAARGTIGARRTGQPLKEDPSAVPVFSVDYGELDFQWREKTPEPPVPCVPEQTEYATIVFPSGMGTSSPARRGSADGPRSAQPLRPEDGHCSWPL

The experiment has as its target T1, PD-1/PD-L1 interaction (PE-labeled human PD-L1-Ig binding to Jurkat cell line over-expressing human PD-1) (Homo sapiens, UniProt Q15116).
T1 construct: expressed in transfected cells; host or cells: Jurkat
Nature of the experiment: Jurkat-PD-1 Cell Binding High-Content Screening Assay (CBA). The conditions noted are these: Jurkat-hPD-1 cells, PE-labeled PD-L1-Ig 20 nM final; read-out: Jurkat HPD1 PDL1 IC50. The procedure, abridged: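 In this imaging assay, cells in 10% FCS medium see compound for 2 h at 37 °C and then labeled ligand at 20 nM final for 1 h. Paraformaldehyde fixation, Hoechst 33342 staining and dPBS washes precede image capture.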
On to `Cc1cccc(C[C@@H]2NC(=O)[C@H](CC(=O)O)NC(=O)[C@H](Cc3ccc(OCC(=O)O)cc3)NC(=O)[C@H](C(C)O)NC(=O)CSC[C@@H](C(=O)N[C@@H](CCN)C(=O)NCCCCCCCCCCC(=O)O)NC(=O)[C@H](C(C)O)NC(=O)[C@H](C(C)C)NC(=O)[C@H](CC3CCCCC3)NC(=O)[C@H](CCN)NC(=O)[C@@H](CC(C)C)NC(=O)[C@H](C)N(C)C(=O)[C@H](CCCNC(N)=O)NC(=O)[C@H](Cc3ccc(-c4ccccc4)cc3)NC(=O)[C@H](C(C)C)NC2=O)c1` (stereo partly drawn) [Example 2336] ({CH2CO}-[Thr(3ξ)]Y(Carboxymethyl)D[Phe(3-Me)]V[Bip][Cit][NMeA][dL][Dab][Cha]V[Thr(3ξ)]C[Dab][Aun]-OH; thioether N-14), for which the IC50 worked out at 6.7 nM. In the case of `Cc1cccc(C[C@@H]2NC(=O)[C@H](CC(=O)O)NC(=O)[C@H](Cc3ccc(OCC(=O)O)cc3)NC(=O)[C@H](C(C)O)NC(=O)CSC[C@@H](C(=O)N[C@H](CC(N)=O)C(=O)NCCCCCCCCCCC(=O)O)NC(=O)[C@H](C(C)O)NC(=O)[C@H](C(C)C)NC(=O)[C@H](CC3CCCCC3)NC(=O)[C@H](CCN)NC(=O)[C@@H](CC(C)C)NC(=O)[C@H](C)N(C)C(=O)[C@H](CCCNC(=N)N)NC(=O)[C@H](Cc3ccc(-c4ccccc4)cc3)NC(=O)[C@H](Cc3ccc(O)cc3)NC2=O)c1` (stereo partly drawn) [Example 2338] ({CH2CO}-[Thr(3ξ)]Y(Carboxymethyl)D[Phe(3-Me)]Y[Bip]R[NMeA][dL][Dab][Cha]V[Thr(3ξ)]C[dN][Aun]-OH; thioether N-14), the IC50 was determined as 5.5 nM. Next, `Cc1cccc(C[C@@H]2NC(=O)[C@H](CC(=O)O)NC(=O)[C@H](Cc3ccc(OCC(=O)O)cc3)NC(=O)[C@H](C(C)O)NC(=O)CSC[C@@H](C(=O)NCCOCCOCC(=O)NCCCCCCCCCCC(=O)O)NC(=O)[C@H](C(C)O)NC(=O)[C@H](C(C)C)NC(=O)[C@H](CC3CCCCC3)NC(=O)[C@H](CCN)NC(=O)[C@@H](CC(C)C)NC(=O)[C@H](C)N(C)C(=O)[C@H](Cc3ccc(OCC(=O)O)cc3)NC(=O)[C@H](Cc3ccc(-c4ccccc4)cc3)NC(=O)[C@H](Cc3ccc(OCC(=O)O)cc3)NC2=O)c1` (stereo partly drawn) [Example 2341] ({CH2CO}-[Thr(3ξ)]Y(Carboxymethyl)D[Phe(3-Me)]Y(Carboxymethyl)[Bip]Y(Carboxymethyl)[NMeA][dL][Dab][Cha]V[Thr(3ξ)]C[AEEA][Aun]-OH; thioether N-14): 41.7 nM. `Cc1cccc(C[C@@H]2NC(=O)[C@H](CC(=O)O)NC(=O)[C@H](Cc3ccc(OCC(=O)O)cc3)NC(=O)[C@H](CCCNC(=N)N)NC(=O)CSC[C@@H](C(=O)NCCOCCOCC(=O)NCCCCCCCCCCC(=O)O)NC(=O)[C@H](C(C)O)NC(=O)[C@H](C(C)C)NC(=O)[C@H](CC3CCCCC3)NC(=O)[C@H](CCN)NC(=O)[C@@H](CC(C)C)NC(=O)[C@H](C)N(C)C(=O)[C@H](Cc3ccc(OCC(=O)O)cc3)NC(=O)[C@H](Cc3ccc(-c4ccccc4)cc3)NC(=O)[C@H](Cc3ccc(OCC(=O)O)cc3)NC2=O)c1` (stereo partly drawn) [Example 2342] ({CH2CO}-RY(Carboxymethyl)D[Phe(3-Me)]Y(Carboxymethyl)[Bip]Y(Carboxymethyl)[NMeA][dL][Dab][Cha]V[Thr(3ξ)]C[AEEA][Aun]-OH; thioether N-14): the IC50 was determined as 74.8 nM. `Cc1cccc(C[C@@H]2NC(=O)[C@H](CC(=O)O)NC(=O)[C@H](Cc3ccc(OCC(=O)O)cc3)NC(=O)[C@H](C(C)O)NC(=O)CSC[C@@H](C(=O)NCCOCCOCC(=O)NCCCCCCCCCCC(=O)O)NC(=O)[C@H](C(C)O)NC(=O)[C@H](C(C)C)NC(=O)[C@H](CC3CCCCC3)NC(=O)[C@H](CCN)NC(=O)[C@@H](CC(C)C)NC(=O)[C@H](C)N(C)C(=O)[C@H](Cc3ccc(OCC(=O)O)cc3)NC(=O)[C@H](Cc3ccc(-c4ccccc4)cc3)NC(=O)[C@H](Cc3ccc(C(=O)O)cc3)NC2=O)c1` (stereo partly drawn) [Example 2343] ({CH2CO}-[Thr(3ξ)]Y(Carboxymethyl)D[Phe(3-Me)][Phe(4-COOH)][Bip]Y(Carboxymethyl)[NMeA][dL][Dab][Cha]V[Thr(3ξ)]C[AEEA][Aun]-OH; thioether N-14): the IC50 came to 51.7 nM. Next, `Cc1cccc(C[C@@H]2NC(=O)[C@H](CC(=O)O)NC(=O)[C@H](Cc3ccc(OCC(=O)O)cc3)NC(=O)[C@H](C(C)O)NC(=O)CSC[C@@H](C(=O)NCCOCCOCC(=O)NCCCCCCCCCCC(=O)O)NC(=O)[C@H](C(C)O)NC(=O)[C@H](C(C)C)NC(=O)[C@H](CC3CCCCC3)NC(=O)[C@H](CCN)NC(=O)[C@@H](CC(C)C)NC(=O)[C@H](C)N(C)C(=O)[C@H](Cc3ccc(OCC(=O)O)cc3)NC(=O)[C@H](Cc3ccc(-c4ccccc4)cc3)NC(=O)[C@H](CCCCC(N)=O)NC2=O)c1` (stereo partly drawn) [Example 2345] ({CH2CO}-[Thr(3ξ)]Y(Carboxymethyl)D[Phe(3-Me)][hhGln][Bip]Y(Carboxymethyl)[NMeA][dL][Dab][Cha]V[Thr(3ξ)]C[AEEA][Aun]-OH; thioether N-14): 67.5 nM; `Cc1cccc(C[C@@H]2NC(=O)[C@H](CC(=O)O)NC(=O)[C@H](Cc3ccc(OCC(=O)O)cc3)NC(=O)[C@H](C(C)O)NC(=O)CSC[C@@H](C(=O)NCCOCCOCC(=O)NCCCCCCCCCCC(=O)O)NC(=O)[C@H](C(C)O)NC(=O)[C@H](C(C)C)NC(=O)[C@H](CC3CCCCC3)NC(=O)[C@H](CCN)NC(=O)[C@@H](CC(C)C)NC(=O)[C@H](C)N(C)C(=O)[C@H](Cc3ccc(OCC(=O)O)cc3)NC(=O)[C@H](Cc3ccc(-c4ccccc4)cc3)NC(=O)[C@H](C(C)C)NC2=O)c1` (stereo partly drawn) [Example 2346] ({CH2CO}-[Thr(3ξ)]Y(Carboxymethyl)D[Phe(3-Me)]V[Bip]Y(Carboxymethyl)[NMeA][dL][Dab][Cha]V[Thr(3ξ)]C[AEEA][Aun]-OH; thioether N-14): 23.1 nM; `Cc1cccc(C[C@@H]2NC(=O)[C@H](CC(=O)O)NC(=O)[C@H](Cc3ccc(OCC(=O)O)cc3)NC(=O)[C@H](C(C)O)NC(=O)CSC[C@@H](C(=O)N[C@@H](CCN)C(=O)NCCCCCCCCCCC(=O)O)NC(=O)[C@H](C(C)O)NC(=O)[C@H](C(C)C)NC(=O)[C@H](CC3CCCCC3)NC(=O)[C@H](CCN)NC(=O)[C@@H](CC(C)C)NC(=O)[C@H](C)N(C)C(=O)[C@H](Cc3ccc(OCC(=O)O)cc3)NC(=O)[C@H](Cc3ccc(-c4ccccc4)cc3)NC(=O)[C@H](Cc3ccc(C(=O)O)cc3)NC2=O)c1` (stereo partly drawn) [Example 2347] ({CH2CO}-[Thr(3ξ)]Y(Carboxymethyl)D[Phe(3-Me)][Phe(4-COOH)][Bip]Y(Carboxymethyl)[NMeA][dL][Dab][Cha]V[Thr(3ξ)]C[Dab][Aun]-OH; thioether N-14): 9.3 nM.

As to `Cc1cccc(C[C@@H]2NC(=O)[C@H](CC(=O)O)NC(=O)[C@H](Cc3ccc(OCC(=O)O)cc3)NC(=O)[C@H](C(C)O)NC(=O)CSC[C@@H](C(=O)N[C@@H](CCN)C(=O)NCCCCCCCCCCC(=O)O)NC(=O)[C@H](CCO)NC(=O)[C@H](C(C)C)NC(=O)[C@H](CC3CCCCC3)NC(=O)[C@H](CCN)NC(=O)[C@@H](CC(C)C)NC(=O)[C@H](C)N(C)C(=O)[C@H](Cc3ccc(OCC(=O)O)cc3)NC(=O)[C@H](Cc3ccc(-c4ccccc4)cc3)NC(=O)[C@H](CCCNC(N)=O)NC2=O)c1` (stereo partly drawn) [Example 2348] ({CH2CO}-[Thr(3ξ)]Y(Carboxymethyl)D[Phe(3-Me)][Cit][Bip]Y(Carboxymethyl)[NMeA][dL][Dab][Cha]V[hSer]C[Dab][Aun]-OH; thioether N-14), the IC50 came to 30.1 nM.

`Cc1cccc(C[C@@H]2NC(=O)[C@H](CC(=O)O)NC(=O)[C@H](Cc3ccc(OCC(=O)O)cc3)NC(=O)[C@H](CCCNC(=N)N)NC(=O)CSC[C@@H](C(=O)N[C@@H](CCN)C(=O)NCCCCCCCCCCC(=O)O)NC(=O)[C@H](C(C)O)NC(=O)[C@H](C(C)C)NC(=O)[C@H](CC3CCCCC3)NC(=O)[C@H](CCN)NC(=O)[C@@H](CC(C)C)NC(=O)[C@H](C)N(C)C(=O)[C@H](Cc3ccc(OCC(=O)O)cc3)NC(=O)[C@H](Cc3ccc(-c4ccccc4)cc3)NC(=O)[C@H](CCCNC(N)=O)NC2=O)c1` (stereo partly drawn) [Example 2349] ({CH2CO}-RY(Carboxymethyl)D[Phe(3-Me)][Cit][Bip]Y(Carboxymethyl)[NMeA][dL][Dab][Cha]V[Thr(3ξ)]C[Dab][Aun]-OH; thioether N-14): the IC50 worked out at 32.5 nM. Turning to `Cc1cccc(C[C@@H]2NC(=O)[C@H](CC(=O)O)NC(=O)[C@H](Cc3ccc(OCC(=O)O)cc3)NC(=O)[C@H](CCCNC(=N)N)NC(=O)CSC[C@@H](C(=O)N[C@@H](CCN)C(=O)NCCCCCCCCCCC(=O)O)NC(=O)[C@H](CCO)NC(=O)[C@H](C(C)C)NC(=O)[C@H](CC3CCCCC3)NC(=O)[C@H](CCN)NC(=O)[C@@H](CC(C)C)NC(=O)[C@H](C)N(C)C(=O)[C@H](Cc3ccc(OCC(=O)O)cc3)NC(=O)[C@H](Cc3ccc(-c4ccccc4)cc3)NC(=O)[C@H](Cc3ccc(C(=O)O)cc3)NC2=O)c1` [Example 2350] ({CH2CO}-RY(Carboxymethyl)D[Phe(3-Me)][Phe(4-COOH)][Bip]Y(Carboxymethyl)[NMeA][dL][Dab][Cha]V[hSer]C[Dab][Aun]-OH; thioether N-14), the IC50 was 5.6 nM.

For `Cc1cccc(C[C@@H]2NC(=O)[C@H](CC(=O)O)NC(=O)[C@H](Cc3ccc(OCC(=O)O)cc3)NC(=O)[C@H](C(C)O)NC(=O)CSC[C@@H](C(=O)N[C@@H](CCN)C(=O)NCCCCCCCCCCC(=O)O)NC(=O)[C@H](CCO)NC(=O)[C@H](C(C)C)NC(=O)[C@H](CC3CCCCC3)NC(=O)[C@H](CCN)NC(=O)[C@@H](CC(C)C)NC(=O)[C@H](C)N(C)C(=O)[C@H](Cc3ccc(OCC(=O)O)cc3)NC(=O)[C@H](Cc3ccc(-c4ccccc4)cc3)NC(=O)[C@H](Cc3ccc(C(=O)O)cc3)NC2=O)c1` (stereo partly drawn) [Example 2352] ({CH2CO}-[Thr(3ξ)]Y(Carboxymethyl)D[Phe(3-Me)][Phe(4-COOH)][Bip]Y(Carboxymethyl)[NMeA][dL][Dab][Cha]V[hSer]C[Dab][Aun]-OH; thioether N-14), the 50% inhibitory concentration (IC50) stood at 14.5 nM.

By IC50 is commonly meant the midpoint of a concentration-inhibition curve.
